Tests used:
Coagulation factor VII = target: T1, Coagulation factor VII (Homo sapiens, UniProt P08709); assay: In vitro inhibitory activity against coagulation factor VII (fVIIa)
T1 sequence (P08709 whole entry): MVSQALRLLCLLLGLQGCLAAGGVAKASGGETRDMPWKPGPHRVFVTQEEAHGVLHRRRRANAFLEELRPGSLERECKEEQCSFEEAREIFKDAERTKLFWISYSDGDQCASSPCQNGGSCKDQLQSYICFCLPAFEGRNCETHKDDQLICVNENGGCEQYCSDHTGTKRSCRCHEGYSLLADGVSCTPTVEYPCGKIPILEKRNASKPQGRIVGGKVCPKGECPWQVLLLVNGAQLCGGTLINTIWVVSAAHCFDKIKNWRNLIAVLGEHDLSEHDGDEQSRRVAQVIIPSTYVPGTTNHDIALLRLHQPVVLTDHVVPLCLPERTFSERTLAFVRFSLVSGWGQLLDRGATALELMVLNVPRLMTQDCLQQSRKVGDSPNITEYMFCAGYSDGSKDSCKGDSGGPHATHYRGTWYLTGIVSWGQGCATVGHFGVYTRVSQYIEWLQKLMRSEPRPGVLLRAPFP

Prothrombin = Prothrombin (Homo sapiens, UniProt P00734); assay: In vitro inhibitory activity against thrombin
Coagulation factor X = Coagulation factor X (Homo sapiens, UniProt P00742); assay: In vitro inhibitory activity against […] coagulation factor (fXa)
Sequence of Coagulation factor X (P00742 41-179 limits assumed): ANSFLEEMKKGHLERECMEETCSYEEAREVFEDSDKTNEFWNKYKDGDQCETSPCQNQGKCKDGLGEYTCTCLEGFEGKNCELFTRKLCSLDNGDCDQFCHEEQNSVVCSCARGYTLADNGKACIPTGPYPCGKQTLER
Sequence of Coagulation factor X (P00742 235-488 limits assumed): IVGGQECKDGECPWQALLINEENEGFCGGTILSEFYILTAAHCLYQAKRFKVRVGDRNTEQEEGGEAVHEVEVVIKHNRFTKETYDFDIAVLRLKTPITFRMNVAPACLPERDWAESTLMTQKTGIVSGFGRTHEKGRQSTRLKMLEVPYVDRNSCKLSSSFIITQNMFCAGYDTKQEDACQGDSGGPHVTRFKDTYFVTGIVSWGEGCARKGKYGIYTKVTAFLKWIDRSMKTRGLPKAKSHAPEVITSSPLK

Compound	Ki (Coagulation factor VII) [µM]	Ki (Prothrombin) [µM]	Ki (Coagulation factor X) [µM]
CC(NC(=O)CNC(=O)Nc1ccc(C(=N)N)c(F)c1)c1ccc2c(c1)NC(=O)CO2 (stereo not given)	0.47		
C[C@H](NC(=O)CNC(=O)Nc1ccc(C(=N)N)c(Cl)c1)c1cccc(Br)c1	3.76		
N=C(N)c1ccc(NC(=O)NCC(=O)NCc2cccc(Br)c2)cc1	1.51	> 50	7.8
CC(NC(=O)CNC(=O)Nc1ccc(C(=N)N)cc1)c1ccc2c(c1)NC(=O)CO2 (stereo not given)		16.4	> 10
C[C@H](NC(=O)Nc1ccc(C(=N)N)cc1)C(=O)NCc1ccc(Cl)c(Cl)c1	45.8		
C[C@H](NC(=O)C(NC(=O)Nc1ccc(C(=N)N)cc1)c1ccccc1)c1cccc(Br)c1 (stereo not given in full)	3.2		
C[C@H](NC(=O)CNC(=O)Nc1ccc(C(=N)N)cc1)c1ccc2c(c1)OCCO2	0.067	11.2	> 10
N=C(N)c1ccc(NC(=O)NCC(=O)NCc2ccc(Cl)c(Cl)c2)cc1		10.1	14.5
COc1cccc([C@H](C)NC(=O)CNC(=O)Nc2ccc(C(=N)N)cc2)c1	0.035	18.2	> 10
C[C@H](NC(=O)CNC(=O)Nc1ccc(C(=N)N)cc1)c1cccc(Br)c1	0.027	15.9	> 10
CC(NC(=O)CNC(=O)Nc1ccc(C(=N)N)cc1)c1ccc(C(F)(F)F)cc1C(F)(F)F (stereo not given)		> 100	> 10
C[C@H](NC(=O)CNC(=O)Nc1ccc(C(=N)N)c(F)c1)c1cccc(Br)c1	0.12		
C[C@@H](NC(=O)CNC(=O)Nc1ccc(C(=N)N)cc1)c1cccc(Br)c1	31		
CC(C)(NC(=O)CNC(=O)Nc1ccc(C(=N)N)cc1)c1ccccc1		> 50	> 10
C[C@H](NC(=O)CNC(=O)Nc1ccc(C(=N)N)cc1)c1ccccc1		50.7	> 10
C[C@@H](NC(=O)CNC(=O)Nc1ccc(C(=N)N)cc1)c1ccccc1		> 50	> 10
